The subject of the assay is bone marrow stromal cells of mice (ATCC CRL-2749) differentiated into adipocytes. As to the kind of experiment: Promoting lipolysis: glycerol outside the cells measured by glycerol assay kit in adipocytes differentiated from bone marrow stromal cells. The settings on record: cultured at 37° C. for 7 days, OD 540 nm, FIG. 12; for lipolysis promoted in comparison with the control group: 10 μg compound per mL in the well. It counts as cell-based. As for the experimental part:
According to the present embodiment, bone marrow stromal cells of mice were used for testing the efficacy of the compound TC-CA-01, the compound TCI-CA-02, the compound TC-CA-03, the compound TCI-CA-04, and the compound TCI-CA-05 for prompting lipolysis. The bone marrow stromal cells of mice were purchased from American Type Culture Collection (American ATCC®), and the No. was CRL-2749M. Before differentiation, the cells were cultured in a pre-adipocyte expansion medium, including 90 vol % of an α-MEM (Minimum Essential Medium Eagle-Alpha Modification, purchased from Gibco, No. 11095080, America) cell culture medium, and 10 vol % of fetal bovine serum (purchased from Gibco, No. 10437-028, America). In addition, 1.0 vol % of penicillin-streptomycin (purchased from Gibco, No. 15140122, America) was added. A differentiation medium was used for differentiating the bone marrow stromal cells of mice, and included 90 vol % of α-MEM cell culture medium, and 10 vol % of fetal bovine serum. In addition, 1.0 vol % of penicillin-streptomycin was added.
The bone marrow stromal cells of mice were inoculated in a culture tray by 8×10^4 cells/0.5 mL of the above pre-adipocyte expansion medium in each well. Culture was performed at 37° C. for 7 days. The culture medium in each well was replaced by the above mentioned fresh differentiation medium once every 3 days during the period. After 7 days, a microscope was used to observe and confirm that the lipid droplets have formed so as to ensure the cells completely differentiated into adipocytes. […]
Then, a value of glycerol outside the cells was measured by a glycerol assay kit (purchased from Cayman Chemical, No. 10011725, America). […] This kit quantified the value of glycerol outside the cells by measuring the content of a product of a coupling enzyme reaction system capable of generating a bright purple, and used a glycerol standard in the kit to build a standard curve so as to reckon the value of the glycerol outside the cells of a sample. […]

With `COc1cc(/C=C/C(=O)O)ccc1O` [TCI-CA-01, 4-hydroxy-3-methoxycinnamic acid], for the setting “10 μg of each compound per mL in the well”, the “efficacy for promoting lipolysis in comparison with the control group (result in words)” value was “effectively promoted”.

As to `C[C@@H]1O[C@@H](O[C@H]2[C@H](Oc3cc(O)c4c(c3)O[C@H](c3ccc(O)cc3)CC4=O)O[C@H](CO)[C@@H](O)[C@@H]2O)[C@H](O)[C@H](O)[C@H]1O` [TCI-CA-02], the “lipolysis promoted in comparison with the control group” value is listed as 8%.

As to `O=C1CC(c2ccc(O)cc2)Oc2cc(O)cc(O)c21` (stereo not drawn) [TCI-CA-03, 5,7-Dihydroxy-2-(4-hydroxyphenyl) chroman-4-one], the “lipolysis promoted in comparison with the control group” value turned out to be 15%.
